Source: BigSolDB 2.1

CC(C)(C)NSc1nc2ccccc2s1
solubility (mole fraction)
Conditions	273.2 K	278.2 K	283.2 K	288.2 K	293.2 K	298.2 K	303.2 K	308.2 K	313.2 K
in ethanol	0.00951	0.0111	0.0133	0.0157	0.0198	0.0236	0.0278	0.0344	0.0419
in isopropanol	0.00844	0.00938	0.0122	0.015	0.0176	0.0208	0.025	0.0298	0.0352
in methanol	0.00591	0.00707	0.00834	0.00991	0.0123	0.0148	0.0178	0.0219	0.0266
in n-butanol	0.0177	0.0202	0.0237	0.028	–	0.0375	0.0444	0.0524	0.061
in tert-butylamine	0.0952	0.107	0.115	0.124	0.135	0.149	0.165	0.176	0.198
in toluene	0.0273	0.0355	0.0422	0.0518	0.0605	0.0691	0.084	0.102	0.122
